Results as given in patent US7344829B2, “Methods for detecting the efficacy of anticancer treatments” (Board of Regents, the University of Texas System, priority 2000, dated 2008).
Where two headings read alike, the source gives them in different places.

Assays:
VEGF = test: In vitro expression of VEGF by L3.6pl cells (ELISA); type: cell-based, human; conditions: 72 h, 1 μM PKI166 or 10 nM gemcitabine, control 1400 pg/ml
Description: (§1) In vitro Expression of VEGF and IL-8. L3.6pl cells (2000 cells/38 mm^2 well) were plated into 96-well plates in 200 μl supplemented DMEM containing 5% FBS for 24 h, and then treated with 0.05, 0.5, or 1 μM PKI166. Supplemented DMEM (5% FBS) and human IgG (10 μg/ml) served as controls. Seventy-two hours later, the culture supernatants were collected, and the level of VEGF and IL-8 proteins (corrected for cell number) were determined by Quantikine ELISA kits.

EGF-R-ICD = target: T1, EGF-R-ICD (Homo sapiens, UniProt P00533); test: In vitro kinase filter binding assay, EGF-R intracellular kinase domain; type: biochemical
T1 construct: EGF-R intracellular kinase domain (EGF-R-ICD) was assayed in 20 mM Tris-HCl
T1 sequence (P00533 669-1210 limits assumed): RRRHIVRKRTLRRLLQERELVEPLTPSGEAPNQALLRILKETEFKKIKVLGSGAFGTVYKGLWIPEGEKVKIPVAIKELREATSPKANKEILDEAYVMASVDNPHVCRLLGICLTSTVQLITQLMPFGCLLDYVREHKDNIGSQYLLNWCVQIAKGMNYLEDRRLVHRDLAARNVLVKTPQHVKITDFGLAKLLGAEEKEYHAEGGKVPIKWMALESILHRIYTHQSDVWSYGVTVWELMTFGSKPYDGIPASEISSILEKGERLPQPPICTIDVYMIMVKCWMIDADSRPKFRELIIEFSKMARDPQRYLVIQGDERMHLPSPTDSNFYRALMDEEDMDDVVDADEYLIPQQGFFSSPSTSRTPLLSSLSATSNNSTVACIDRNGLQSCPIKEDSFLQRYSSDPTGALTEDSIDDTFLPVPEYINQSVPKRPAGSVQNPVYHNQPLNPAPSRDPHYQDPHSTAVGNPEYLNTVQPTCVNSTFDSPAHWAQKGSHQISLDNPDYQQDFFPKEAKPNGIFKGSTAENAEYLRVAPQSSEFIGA
Description: (§2) Preparation of Enzymes and Kinase Assays. In vitro enzyme assays using EGF-R (McGlynn et al. 1992a), Abl (Geissler et al. 1992), and c-Src (Geissler et al. 1990) protein tyrosine kinases were performed in 96-well plates as a filter binding assay. Briefly, EGF-R intracellular kinase domain (EGF-R-ICD) was assayed in 20 mM Tris-HCl, pH 7.5, 10 mM MnCl2, 10 μM Na3VO4, 1 mM DTT, 0.1 μCi/assay [γ-^33P]ATP, 0.4 μM ATP, 2 μ/ml poly(Glu,Tyr 4:1) (Sigma P275), 1% DMSO, and 30 ng EGF-R-ICD in a total volume of 30 μl. The His-tagged kinase domain of c-Abl was cloned and expressed in the baculovirus/Sf9 system as described previously (Bhat et al. 1997) and assayed in 20 mM Tris-HCl, pH 7.5, 10 mM MgCl2, 10 μM Na3VO4, 1 mM DTT, 0.06 μCi/assay (=30 μl ) [γ-^32P]ATP, 5 μM ATP, 30 μg/ml poly(Ala,Glu,Lys,Tyr 6:2:5:1) (Sigma P1152), 1% DMSO, and 50 ng c-Abl enzyme. Src kinase (60 μg/ml) was preactivated with 50 μM ATP for 10 min at room temperature, and kinase inhibition was measured in 20 mM Tris-HCl, pH 7.5, 10 mM MgCl2, 10 μM Na3VO4, 1 mM DTT, 0.1 μCi/assay (=30 μl ) [γ-^33P]ATP, 20 μM ATP, 25 μg/ml poly(Glu,Tyr 4:1), 1% DMSO, and 10 ng c-Src enzyme.
(§3) GST-fused kinase domains of Kdr, Flt-1, Flk, Tek, c-Met, and c-Kit were expressed in baculovirus and purified over glutathione-Sepharose. Kinase inhibition was measured by detecting the decrease in phosphorylation of poly(Glu,Tyr 4:1) essentially as previously described for EGF-R. Each kinase was incubated under optimized buffer conditions in 20 mM Tris-HCl, pH 7.5, 1–3 mM MnCl2, 3–10 mM MgCl2, 10 μM Na3VO4, 1 mM DTT, 0.2 μCi/[γ-^33P]ATP, 1–8 μM ATP, 3–8 μg/ml poly(Glu,Tyr 4:1), 1% DMSO in a total volume of 30 μl in the presence or absence of PKI166 for 10 min at ambient temperature. Reactions were terminated by adding 10 μl of 250 mM EDTA, and the reaction mixture was transferred onto an Immobilon-PVDG membrane (Millipore, Bedford, Mass.). Following a washing (0.5% H3PO4), a soaking in EtOH, and drying, filters were counted in a liquid scintillation counter. IC50 values for PKI166 were calculated by linear regression analysis of the percentage inhibition. Inhibition of Cdc2/cyclin B protein kinase (Arion et al. 1988; Partanen et al. 1991) and PKC (McGlynn et al. 1992b) was assayed as previously described.

c-Src = c-Src (Homo sapiens, UniProt P12931); test: In vitro kinase filter binding assay, c-Src; type: biochemical
Chain of c-Src (P12931 whole entry, species assumed, the tested form may be a part): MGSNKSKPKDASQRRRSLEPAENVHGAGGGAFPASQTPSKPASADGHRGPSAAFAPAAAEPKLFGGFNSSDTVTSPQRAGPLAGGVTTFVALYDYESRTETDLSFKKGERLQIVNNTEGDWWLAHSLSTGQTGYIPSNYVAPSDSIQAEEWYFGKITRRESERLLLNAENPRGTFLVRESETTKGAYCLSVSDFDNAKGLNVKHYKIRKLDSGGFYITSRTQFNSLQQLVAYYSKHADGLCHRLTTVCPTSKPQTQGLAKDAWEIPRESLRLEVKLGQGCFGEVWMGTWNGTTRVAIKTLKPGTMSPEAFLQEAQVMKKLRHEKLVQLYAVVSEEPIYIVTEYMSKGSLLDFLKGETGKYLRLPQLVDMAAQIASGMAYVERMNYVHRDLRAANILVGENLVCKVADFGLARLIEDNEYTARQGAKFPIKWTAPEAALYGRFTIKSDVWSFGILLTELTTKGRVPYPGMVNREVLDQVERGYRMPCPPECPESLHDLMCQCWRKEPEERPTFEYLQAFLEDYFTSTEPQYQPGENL
Description: as §2, with “The His-tagged kinase domain of c-Abl was cloned and expressed in the baculovirus/Sf9 system as described previously (Bhat et al. 1997) and assayed in 20 mM Tris-HCl, pH 7.5, 10 mM MgCl2, 10 μM Na3VO4, 1 mM DTT, 0.06 μCi/assay (=30 μl ) [γ-^32P]ATP, 5 μM ATP, 30 μg/ml poly(Ala,Glu,Lys,Tyr 6:2:5:1) (Sigma P1152), 1% DMSO, and 50 ng c-Abl enzyme.” left out
GST-fused kinase domains of Kdr, Flt-1, Flk, Tek, c-Met, and c-Kit were expressed in baculovirus and purified over glutathione-Sepharose. Kinase inhibition was measured by detecting the decrease in phosphorylation of poly(Glu,Tyr 4:1) essentially as previously described for EGF-R. Each kinase was incubated under optimized buffer conditions in 20 mM Tris-HCl, pH 7.5, 1–3 mM MnCl2, 3–10 mM MgCl2, 10 μM Na3VO4, 1 mM DTT, 0.2 μCi/[γ-^33P]ATP, 1–8 μM ATP, 3–8 μg/ml poly(Glu,Tyr 4:1), 1% DMSO in a total volume of 30 μl in the presence or absence of PKI166 for 10 min at ambient temperature. […]

c-Met = target: T2, c-Met (Homo sapiens, UniProt P08581); test: GST-fused kinase domain assay, c-Met; type: biochemical
T2 construct: GST-fused kinase domains of Kdr, Flt-1, Flk, Tek, c-Met, and c-Kit were expressed in baculovirus; GST; made in house
T2 sequence (P08581 1078-1345 limits assumed): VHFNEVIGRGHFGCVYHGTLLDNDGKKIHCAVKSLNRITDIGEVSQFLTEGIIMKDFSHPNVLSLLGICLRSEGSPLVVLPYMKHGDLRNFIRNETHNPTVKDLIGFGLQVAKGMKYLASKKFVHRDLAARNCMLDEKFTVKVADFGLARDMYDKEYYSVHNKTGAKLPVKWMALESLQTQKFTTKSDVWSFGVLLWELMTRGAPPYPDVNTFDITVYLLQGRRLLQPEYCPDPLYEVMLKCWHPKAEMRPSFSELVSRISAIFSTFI
Description: as §3

[1] = test system: L3.6pl human pancreatic cancer cells
Description: Animals and Orthotopic Implantation of Tumor Cells. Male athymic nude mice (NCr-nu) were purchased from the Animal Production Area of the National Cancer Institute-Frederick Cancer Research and Development Center (Frederick, Md.). The mice were housed and maintained in laminar flow cabinets under specific pathogen-free conditions in facilities approved by the American Association for Accreditation of Laboratory Animal Care and in accordance with current regulations and standards of the U. S. Department of Agriculture, U.S. Department of Health and Human Services, and the National Institutes of Health. The mice were used in accordance with institutional guidelines when they were 8 to 12 wk old.
Orthotopic Implantation of Tumor Cells. To produce tumors, L3.6pl cells were harvested from subconfluent cultures by a brief exposure to 0.25% trypsin and 0.02% EDTA. Trypsinization was stopped with medium containing 10% FBS, and the cells were washed once in serum-free medium and resuspended in HBSS. Only suspensions consisting of single cells with greater than 90% viability were used for the injections. Cells were injected into the pancreas as described previously. The mice were killed when moribund (5–6 wk). The size and weight of the primary pancreatic tumors, the incidence of regional (celiac and paraaortal) lymph node metastasis, and the number of liver metastases were recorded. Histopathology confirmed the nature of the disease.
Therapy of Established Human Pancreatic Carcinoma Tumors Growing in the Pancreas of Athymic Nude Mice. Seven days after implantation of tumor cells into the pancreas, 5 mice were killed and the presence of tumor lesions was determined. At this time, the median tumor volume was 18 mm^3. Histological examination confirmed the lesions to be actively growing pancreatic cancer.
Necropsy Procedures and Histological Studies. Mice were euthanized and the body weight was determined. Primary tumors in the pancreas were excised and weighed. […] Visible liver metastases were counted with the aid of a dissecting microscope and processed for H&E staining. All macroscopically enlarged regional (celiac and paraaortal) lymph nodes were harvested, and the presence of metastatic disease was confirmed by histology.

EGF-R = target: T3, EGF-R (Homo sapiens, UniProt P00533); test: Western blot analysis of EGF-R autophosphorylation in L3.6pl cells; type: cell-based; conditions: 60 min pretreatment, 0.01–0.5 μM, then EGF
T3 construct: endogenous in cells; host or cells: L3.6pl human pancreatic cancer cells
T3 sequence (P00533 25-1210): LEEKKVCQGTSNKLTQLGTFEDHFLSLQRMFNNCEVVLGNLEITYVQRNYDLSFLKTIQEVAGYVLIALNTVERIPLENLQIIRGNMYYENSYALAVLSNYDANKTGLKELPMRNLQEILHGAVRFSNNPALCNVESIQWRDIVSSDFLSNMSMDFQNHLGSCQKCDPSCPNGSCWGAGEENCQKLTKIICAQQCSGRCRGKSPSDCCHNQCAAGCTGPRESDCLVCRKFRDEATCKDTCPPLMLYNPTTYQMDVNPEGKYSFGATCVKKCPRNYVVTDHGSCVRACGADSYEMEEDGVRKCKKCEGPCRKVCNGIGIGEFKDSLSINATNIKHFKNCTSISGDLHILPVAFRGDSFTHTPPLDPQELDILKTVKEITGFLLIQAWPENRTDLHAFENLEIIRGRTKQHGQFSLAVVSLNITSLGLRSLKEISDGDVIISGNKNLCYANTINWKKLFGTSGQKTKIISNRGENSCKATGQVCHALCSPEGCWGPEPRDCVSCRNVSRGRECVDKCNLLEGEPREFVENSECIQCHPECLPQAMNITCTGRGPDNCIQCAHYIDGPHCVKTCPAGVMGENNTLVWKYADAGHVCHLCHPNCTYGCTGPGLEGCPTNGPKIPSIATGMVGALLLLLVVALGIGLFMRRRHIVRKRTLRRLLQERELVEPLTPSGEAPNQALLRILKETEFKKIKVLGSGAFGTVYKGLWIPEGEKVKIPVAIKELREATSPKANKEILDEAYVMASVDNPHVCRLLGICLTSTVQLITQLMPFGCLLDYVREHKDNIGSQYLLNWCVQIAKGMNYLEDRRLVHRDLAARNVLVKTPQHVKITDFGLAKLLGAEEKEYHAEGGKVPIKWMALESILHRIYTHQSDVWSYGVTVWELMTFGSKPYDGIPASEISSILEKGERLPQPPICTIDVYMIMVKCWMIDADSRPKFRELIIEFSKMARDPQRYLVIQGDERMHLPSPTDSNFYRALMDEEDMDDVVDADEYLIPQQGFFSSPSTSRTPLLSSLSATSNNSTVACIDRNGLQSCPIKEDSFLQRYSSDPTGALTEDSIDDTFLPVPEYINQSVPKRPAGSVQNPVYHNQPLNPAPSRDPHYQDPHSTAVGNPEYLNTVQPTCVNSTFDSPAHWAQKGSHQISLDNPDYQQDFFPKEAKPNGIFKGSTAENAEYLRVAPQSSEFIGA
Description: Western Blot Analysis of EGF-R Autophosphorylation following Treatment with PKI166. […] without 40 ng/ml rhEGF for 10 min, washed, and scraped into PBS containing 5 mM EDTA and 1 mM Na Orthovanadate, and centrifuged, and the pellet resuspended in lysis buffer (20 mM Tris-HCl, pH 8.0, 137 mM NaCl, 10% glycerol, 2 mM EDTA, 1 mM phenylmethylsulfonyl fluoride, 20 μM leupeptin, and 0.15 U/ml aprotinin) sonicated, and centrifuged to recover […] protein. Immunoprecipitation was performed using Mab anti-EGF-R (clone EGF-RI) as described previously (Perrotte et al. 1999; Parker et al. 1998). Immunoprecipitates were analyzed on 7.5% NaDodSO4-PAGE and transferred onto 0.45-μm nitrocellulose membranes. The filters were blocked with 3% bovine serum albumin in TDS (20 mM Tris-HCl, pH 7.5, 150 mM NaCl), probed with either polyclonal sheep anti-human EGF-R (1:1000) or monoclonal anti-phosphotyrosine (Mab 4G10) (1:2000) in TTBS (0.1% Tween 20 in TBS), and incubated with horseradish peroxidase-conjugated donkey anti-sheep IgG (1:2000) (Sigma Immunochemicals, St. Louis, Mo.) or sheep anti-mouse IgG (1:2000), respectively, in TTBS. Protein bands were visualized by ECL detection system. For an additional experiment, serum-starved L3.6pl cells were treated with gemcitabine (10 nM) with or without PKI166 (0.05, 0.5 μM) for 1 h, and then incubated with or without rhEGF (40 ng/ml) for 10 min. […]

IL-8 = test: In vitro expression of IL-8 by L3.6pl cells (ELISA); type: cell-based, human; conditions: 72 h, 1 μM PKI166 or 10 nM gemcitabine, control 1440 pg/ml
Description: as §1

Flk = target: T4, Flk (Mus musculus, UniProt P35918); test: GST-fused kinase domain assay, Flk; type: biochemical
T4 construct: GST-fused kinase domains of Kdr, Flt-1, Flk, Tek, c-Met, and c-Kit were expressed in baculovirus; GST; made in house
T4 sequence (P35918 832-1160 limits assumed): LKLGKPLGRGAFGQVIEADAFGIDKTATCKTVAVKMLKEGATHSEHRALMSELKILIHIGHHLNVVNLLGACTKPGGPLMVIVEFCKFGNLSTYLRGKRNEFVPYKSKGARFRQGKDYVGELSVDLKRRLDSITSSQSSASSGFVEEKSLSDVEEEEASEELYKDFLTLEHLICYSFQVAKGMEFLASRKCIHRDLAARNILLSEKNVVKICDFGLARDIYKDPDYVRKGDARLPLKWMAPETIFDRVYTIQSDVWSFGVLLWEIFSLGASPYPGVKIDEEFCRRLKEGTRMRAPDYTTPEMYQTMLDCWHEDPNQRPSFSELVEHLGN
Description: as §3

C[C@@H](Nc1ncnc2[nH]c(-c3ccc(O)cc3)cc12)c1ccccc1 [PKI166, 4-(R)-phenethylamino-6-(hydroxyl) phenyl-7H-pyrrolo[2.3-d]-pyrimidine]
VEGF in culture supernatant (VEGF): 180 pg/mL | mode of inhibition of EGF-R kinase (EGF-R-ICD; enzyme kinetic studies): ATP-competitive inhibition | IC50 (EGF-R-ICD; intracellular domain (ICD) of the EGF-R kinase): 0.0007 µM | selectivity factor for inhibition of the EGF-R ICD (EGF-R-ICD; versus other tyrosine kinases (Traxler et al. 1999)): > 40 | selectivity ratio (EGF-R-ICD; with respect to inhibition of serine/threonine kinases PKC-α and Cdc2/cyclin B): > 3000 | IC50 (c-Src): 0.103 µM | IC50 (c-Src; text): 0.13 µM | IC50 (c-Met): > 1 µM | Histologically positive regional lymph node metastases, share of animals ([1]; day 35): 90% | Reduction of growth of primary pancreatic neoplasms ([1]; human pancreatic carcinoma in pancreas of nude mice): 45% | Tolerability as determined by maintenance of body weight ([1]; mouse, in vivo, po, 100 mg/kg): well tolerated | Inhibition of EGF-stimulated EGF-R autophosphorylation (EGF-R): inhibited the autophosphorylation in a dose-dependent manner | IL-8 in culture supernatant (IL-8): 640 pg/mL | IC50 (Flk): > 1 µM
